Data reported in US20240066155A1, “DUAL MODE RADIOTRACER AND -THERAPEUTICS” (priority 2021, published 2024).

How the values were obtained:
[1] = literature, Wängler et al. Bioconjug Chem 2010; cited from earlier work
human serum albumin = biological target: T1, human serum albumin (Homo sapiens, UniProt P02768); assay: Binding to human serum albumin by albumin mediated size exclusion chromatography (AMSEC); format: in vitro ADME; details: size exclusion chromatography with HSA in the mobile phase, 177Lu-labeled
T1 construct: purchased Biowest, Nuaillé, France
Protocol: Binding of ^177Lu-labeled ligands to HSA was assessed by albumin mediated size exclusion chromatography (AMSEC). A gel filtration size exclusion column (Superdex 75 Increase 10/300 GL, GE Healthcare, Uppsala, Sweden) was used with HSA buffer at physiological concentration (700 μM, Biowest, Nuaillé, France) as mobile phase (constant flow rate of 0.8 mL/min at room temperature). For calibration purposes, a commercially available set of proteins (GE Healthcare, Buckinghamshire, UK) was used. Under these chromatographic conditions, the retention time of a radioligand (1.0 MBq, 10-20 GBq/μmol) depends on the extent of HSA/ligand interactions and thus, by means of the calibration with the aforementioned set of proteins, can be translated into an AMW (expressed in kDa) as a parameter allowing to quantify the extent of HSA binding. The detection window ranges between 2.3 kDa ([^18F]Fluoride; no HSA interaction) and 70.2 kDa (experimental molecular weight of HSA; maximum HSA interaction).

PSMA = biological target: T2, PSMA (Homo sapiens, UniProt Q04609); assay: Competitive binding studies on LNCaP cells vs ([125I]BA)KuE (affinity, IC50); details: 1 h, 4° C., natLu complexes, n=3
T2 construct: endogenous in cells; host or cells: LNCaP cells
Protocol: (§1) Competitive binding studies were determined on LNCaP cells (1.5×10^5 cells in 1 mL/well) after incubation at 4° C. for 1 h, using (((S)-1-carboxy-5-(4-([^125I]iodo)benzamido)pentyl)carbamoyl)-L-glutamic acid ([^125I]BA)KuE; 0.2 nM/well) as reference radioligand (n=3). Internalization studies of the radiolabeled ligands (1.0 nM/well) were performed on LNCaP cells (1.25×10^5 cells in 1 mL/well) at 37° C. for 1 h and accompanied by ([^125I]BA)KuE (0.2 nM/well), as reference. Data were corrected for non-specific binding and normalized to the specific internalization observed for the reference (n=3). A detailed description of the experimental procedures was previously published (Wurzer A, et al. J Nucl Med. 2020; 61: 735-742).

LNCaP cells = assay: PSMA-mediated internalization into LNCaP cells; format: cell-based; details: 1 h, 37° C., percentage of reference ligand ([125I]BA)KuE, n=3
Protocol: as §1

[2] = Lipophilicity, n-octanol/PBS (pH 7.4) distribution; format: physicochemical; details: n-octanol/PBS pH 7.4, 177Lu-labeled, n=6
Protocol: Approximately 1 MBq of the ^177Lu-labeled PSMA ligand was dissolved in 1 mL of a 1:1 mixture (v/v) of phosphate-buffered saline (PBS, pH 7.4) and n-octanol (n=6). After vigorous mixing of the suspension for 3 min, the vial was centrifuged at 15000×g for 3 min and 100 μL aliquots of both layers were measured in a γ-counter. Finally, the ratio of the radioactivity detected in the n-octanol sample and the PBS buffer was calculated and expressed as distribution ratio log D7.4.

[3] = system: LNCaP tumor-bearing male CB-17 SCID mice; assay: Ex vivo biodistribution in LNCaP tumor-bearing CB-17 SCID mice; details: 24 h p.i.
Protocol: All animal experiments were conducted in accordance with general animal welfare regulations in Germany (German animal protection act, as amended on 18 May 2018, Art. 141 G v. 29 Mar. 2017 I 626, approval no. 55.2-1-54-2532-71-13) and the institutional guidelines for the care and use of animals. LNCaP tumor xenografts were established in 6-8 weeks old male CB-17 SCID mice as described previously (Wurzer A, et al. J Nucl Med. 2020; 61: 735-742). Biodistribution Studies. The ^177Ludabeled PSMA inhibitors (2-5 MBq; 0.1 nmol) were injected under isoflurane anesthesia into the tail vein of LNCaP tumor-bearing male CB-17 SCID mice that were sacrificed 24 h post injection (p.i.) (n=4-5). Selected organs were removed, weighed, and measured in a counter. All rhPSMA ligands were evaluated in mice during the same time period (Q1/2020), whereas ^177Ludabeled PSMA-617 and PSMA I&T (Wirtz M, et al. EJNMMI Res. 2018; 8: 84) were assessed previously using the identical cell line, mouse model and experimental procedure.

T1 sequence (P02768 25-609): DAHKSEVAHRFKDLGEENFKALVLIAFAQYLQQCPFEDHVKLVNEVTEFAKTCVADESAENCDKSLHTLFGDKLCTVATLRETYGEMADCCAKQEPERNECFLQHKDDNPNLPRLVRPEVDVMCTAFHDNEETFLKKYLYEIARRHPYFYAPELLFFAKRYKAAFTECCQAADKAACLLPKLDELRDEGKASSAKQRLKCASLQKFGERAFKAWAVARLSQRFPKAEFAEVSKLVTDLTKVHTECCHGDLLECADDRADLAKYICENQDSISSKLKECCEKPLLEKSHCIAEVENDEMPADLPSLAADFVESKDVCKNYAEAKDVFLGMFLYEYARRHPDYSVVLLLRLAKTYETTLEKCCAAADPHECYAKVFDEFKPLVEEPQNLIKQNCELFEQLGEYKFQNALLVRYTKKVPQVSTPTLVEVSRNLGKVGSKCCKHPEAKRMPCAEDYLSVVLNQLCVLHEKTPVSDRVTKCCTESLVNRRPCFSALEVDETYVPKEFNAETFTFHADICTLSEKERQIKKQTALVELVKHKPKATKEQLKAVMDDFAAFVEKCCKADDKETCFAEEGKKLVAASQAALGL
T2 sequence (Q04609 whole entry): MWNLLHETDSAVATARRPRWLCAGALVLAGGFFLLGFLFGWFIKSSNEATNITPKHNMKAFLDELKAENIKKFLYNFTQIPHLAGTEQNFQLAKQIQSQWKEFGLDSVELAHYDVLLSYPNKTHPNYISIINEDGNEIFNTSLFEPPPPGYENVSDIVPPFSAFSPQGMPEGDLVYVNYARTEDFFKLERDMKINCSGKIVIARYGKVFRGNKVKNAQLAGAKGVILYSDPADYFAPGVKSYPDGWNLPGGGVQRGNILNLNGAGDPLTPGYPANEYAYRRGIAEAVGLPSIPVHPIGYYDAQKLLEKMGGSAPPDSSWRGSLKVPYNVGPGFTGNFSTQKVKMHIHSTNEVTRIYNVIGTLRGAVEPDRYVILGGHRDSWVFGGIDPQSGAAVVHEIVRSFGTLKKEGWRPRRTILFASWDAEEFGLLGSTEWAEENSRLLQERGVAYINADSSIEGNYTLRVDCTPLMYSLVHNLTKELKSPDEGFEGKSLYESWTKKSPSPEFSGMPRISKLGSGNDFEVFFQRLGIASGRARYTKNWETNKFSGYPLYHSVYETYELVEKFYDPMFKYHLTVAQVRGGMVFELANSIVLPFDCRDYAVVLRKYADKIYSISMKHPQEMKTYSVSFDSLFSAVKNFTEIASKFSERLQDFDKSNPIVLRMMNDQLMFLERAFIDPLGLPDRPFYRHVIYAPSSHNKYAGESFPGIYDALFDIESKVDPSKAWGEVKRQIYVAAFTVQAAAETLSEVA

SIFA-Asn(AcNH-β-Glc)-Tyr^3-octreotate
log P(ow) [1]: 1.23

SIFA-Asn(AcNH-β-Glc)-PEG-Tyr^3-octreotate
log P(ow) [1]: 0.96

CC(C)(C)[Si](F)(c1ccc(C(=O)NC[C@@H](NC(=O)CC[C@@H](C(=O)O)N2CCN(CC(=O)[O-])CCN(CC(=O)[O-])CCN(CC(=O)[O-])CC2)C(=O)N[C@H](CCCCNC(=O)CCC(=O)NCCC[C@@H](NC(=O)CC[C@H](NC(=O)N[C@@H](CCC(=O)O)C(=O)O)C(=O)O)C(=O)O)C(=O)O)cc1)C(C)(C)C.[Lu+3] [[^177Lu, ^19F]rhPSMA-7.3]
MWapp [kDa] (apparent molecular weight, AMW; HSA binding) (human serum albumin): 30.4 kDa
IC50 (PSMA): 3.29 ± 1 nM
Internalization [% IBA-KuE] (LNCaP cells): 184.4 ± 11.8 % IBA-KuE
logD7.4 [2]: −4.12 ± 0.11
Tumor-to-organ ratio adrenals ([3]; n=5, mean of ratios per mouse): 44.34
Tumor-to-organ ratio blood ([3]; n=5, mean of ratios per mouse): 4255
Tumor-to-organ ratio bone ([3]; n=5, mean of ratios per mouse): 625.98
Tumor-to-organ ratio heart ([3]; n=5, mean of ratios per mouse): 542.49
Tumor-to-organ ratio intestine ([3]; n=5, mean of ratios per mouse): 254.02
Tumor-to-organ ratio kidney ([3]; n=5, mean of ratios per mouse): 1.64
Tumor-to-organ ratio liver ([3]; n=5, mean of ratios per mouse): 78.11
Tumor-to-organ ratio lung ([3]; n=5, mean of ratios per mouse): 239.97
Tumor-to-organ ratio muscle ([3]; n=5, mean of ratios per mouse): 2123.58
Tumor-to-organ ratio pancreas ([3]; n=5, mean of ratios per mouse): 754.34
Tumor-to-organ ratio parotid gl. ([3]; n=5, mean of ratios per mouse): 176.66
Tumor-to-organ ratio spleen ([3]; n=5, mean of ratios per mouse): 34.32
Tumor-to-organ ratio stomach ([3]; n=5, mean of ratios per mouse): 453.70
Tumor-to-organ ratio submand. gl. ([3]; n=5, mean of ratios per mouse): 290.08
Tumor-to-organ ratio blood ([3]; n=5, mean of ratios per mouse, listed as [^177Lu]rhPSMA-7.3): 4255.56
Activity accumulation adrenals ([3]; n=5, mean, complete dataset): 0.4233 % ID/g
Activity accumulation blood ([3]; n=5, mean, complete dataset): 0.0046 % ID/g
Activity accumulation bone ([3]; n=5, mean, complete dataset): 0.0307 % ID/g
Activity accumulation heart ([3]; n=5, mean, complete dataset): 0.0333 % ID/g
Activity accumulation intestine ([3]; n=5, mean, complete dataset): 0.1001 % ID/g
Activity accumulation kidney ([3]; n=5, mean, complete dataset): 11.4±1.4 % ID/g
Activity accumulation liver ([3]; n=5, mean, complete dataset): 0.2352 % ID/g
Activity accumulation lung ([3]; n=5, mean, complete dataset): 0.0768 % ID/g
Activity accumulation muscle ([3]; n=5, mean, complete dataset): 0.0094 % ID/g
Activity accumulation pancreas ([3]; n=5, mean, complete dataset): 0.0241 % ID/g
Activity accumulation parotid gl. ([3]; n=5, mean, complete dataset): 0.1068 % ID/g
Activity accumulation spleen ([3]; n=5, mean, complete dataset): 0.5817 % ID/g
Activity accumulation stomach ([3]; n=5, mean, complete dataset): 0.0434 % ID/g
Activity accumulation submand. gl. ([3]; n=5, mean, complete dataset): 0.0644 % ID/g
Activity accumulation tumor ([3]; n=5, mean, complete dataset, LNCaP tumor): 18.1740 % ID/g
Activity accumulation kidney ([3]; n=5, mean, complete dataset, listed as [^177Lu]rhPSMA-7.3): 11.3738 % ID/g
